# Laboratory results: PMC9587990, “Molecular basis for isoform-selective inhibition of presenilin-1 by MRK-560” (Nature Communications, 2022)
# “And” between values parts separate entries of the source, which are not always exact repeats. Equal values may be shown once. “Also recorded” adds a separate entry of the source. Read-outs that look alike come from different tables or passages of the source.
# Experiments:
# PS1 variant T281P = molecular target: T1, PS1 variant T281P (Homo sapiens, UniProt P49768, T281P); experiment: in vitro cleavage assay, AICD production by western blot; type: biochemical; details: 1 μM MRK-560, PS1 T281P
# T1 construct: made in house
# Method: (§1) Fig. 4 Thr281 and Leu282 of PS1 determine the isoform selectivity of MRK-560. a–c Individual and double residue swapping of Thr281 and Leu282 in PS1 with the corresponding Pro287 and Ile288 in PS2 alter their respective sensitives to MRK-560 accordingly. IC50 values for MRK-560 inhibition of the indicated PS1 (a) and PS2 (b) mutants were measured using the AlphaLISA assay that detects Aβ40 production. Please refer to Methods for experimental details. Data are presented as mean values ± SD. c Production of AICD by residue-swapped PS1 and PS2 mutants. The amount of AICD generated by the indicated variants in the presence of serial diluted MRK-560 is consistent with the corresponding IC50 shown in (a, b). […] The production of AICD was quantified by ImageJ. Red asterisks indicate the first concentration where the normalized production of AICD was reduced to less than 20%. Source data are provided as a Source Data file. Each cleavage assay was repeated three times. Error bars: SD.
# (§2) We also examined the inhibitory effect of MRK-560 on the production of AICD by the PS1/PS2 variants (Fig. 4c).
# (§3) All proteins used for the activity assay were sub-cloned, expressed and purified as described. Protein concentration was determined using the Bradford method. […] The cleavage reaction was conducted at 37 °C for 4 h. The cleaved products of these substrates were detected using a monoclonal antibody (1:1000 dilution, CW0299, CWBio) against the C-terminal Myc tag. Aβ40 production was detected using the AlphaLISA assay (PerkinElmer) as described. The IC50 values and the inhibition curves were calculated using Prism 8.0.
# PS1 TL281-282PI = molecular target: T2, PS1 TL281-282PI (Homo sapiens, UniProt P49768, L282I/T281P); experiment: as above; type: biochemical; details: 10 μM MRK-560, PS1 TL281-282PI
# T2 construct: made in house
# Method: as §1, §2, §3
# PS2(PI287-288TL) = molecular target: T3, PS2(PI287-288TL) (Homo sapiens, UniProt P49810, I288L/P287T); experiment: as above; type: biochemical; details: 200 nM MRK-560, PS2(PI287-288TL)
# T3 construct: made in house
# Method: as §1, §2, §3
# PS1 variant L282I = molecular target: T4, PS1 variant L282I (Homo sapiens, UniProt P49768, L282I); experiment: as above; type: biochemical; details: 1 μM MRK-560, PS1 L282I
# T4 construct: made in house
# Method: as §1, §2, §3
# PS2 variants = experiment: as above; type: biochemical, human; details: PS2 variants versus WT PS2
# Method: as §1, with “Each cleavage assay was repeated three times. Error bars: SD.” left out
# (§4) All proteins used for the activity assay were sub-cloned, expressed and purified as described. Protein concentration was determined using the Bradford method. […] The cleaved products of these substrates were detected using a monoclonal antibody (1:1000 dilution, CW0299, CWBio) against the C-terminal Myc tag. Aβ40 production was detected using the AlphaLISA assay (PerkinElmer) as described. The IC50 values and the inhibition curves were calculated using Prism 8.0.
# PS1-complex over PS2 = details: cited from earlier work
# WT PS1-complex = molecular target: T5, WT PS1-complex (Homo sapiens, UniProt P49768); experiment: in vitro cleavage assay, AICD production by western blot; type: biochemical; details: 200 nM MRK-560, WT PS1-complex
# T5 construct: made in house; host or cells: mammalian cells (HEK293F is stated for the cryo-EM samples)
# Method: (§5) The PS1- or PS2 complexes were expressed and purified as described. To validate the inhibitory effect of MRK-560 (Fig. 1a), we reconstituted an in vitro cleavage assay using the purified PS1- or PS2 complexes. Production of Aβ40, which is the major cleavage product among the varying lengths of Aβs, and AICD, whose cleavage reflects the endopeptidase activity of γ-secretase, are measured with AlphaLISA and western blots, respectively.
# (§6) Release of AICD in the presence of decreasing concentrations of MRK-560 from 10 μM to 2 nM was monitored by western blot with the primary monoclonal antibody against the C-terminal Myc tag. The production of AICD was quantified by ImageJ. Red asterisks indicate the first concentration where the normalized production of AICD was reduced to less than 20%. Each cleavage assay in (b–d) was repeated for three times. Error bars: SD. Source Data is available as a Source Data file.
# as §4
# WT PS2-complex = molecular target: T6, WT PS2-complex (Homo sapiens, UniProt P49810); experiment: as above; type: biochemical; details: 10 μM MRK-560, WT PS2-complex
# T6 construct: made in house; host or cells: mammalian cells (HEK293F is stated for the cryo-EM samples)
# Method: as §5, §6, §4
# [1] = tested on: Aβ production in the brain; set-up: method as in PMID 17099072, PMID 16443723; details: cited from earlier work
# Notch = tested on: Notch; set-up: method as in PMID 17099072, PMID 16443723; details: wild-type (WT) mouse model; cited from earlier work
# [2] = molecular target: T7, PS2 PI287-288TL γ-secretase complex (Homo sapiens, UniProt P49810, I288L/P287T); experiment: in vitro cleavage assay, Aβ40 production by AlphaLISA; type: biochemical; details: for remaining activity at 0.002 µM / remaining activity at 0.04 µM / remaining activity at 0.2 µM / remaining activity at 1 µM / remaining activity at 10 µM / remaining activity at 20 µM: 4 h
# T7 construct: made in house
# Method: In total we generated six variants, including single and double residue swapping of Thr281/Leu282 in PS1 with Pro287/Ile288 in PS2, respectively. MRK-560 response to the six PS1/PS2 mutant-containing complexes, each purified to homogeneity, was examined in the in vitro cleavage assay (Fig. 4). All proteins used for the activity assay were sub-cloned, expressed and purified as described. Protein concentration was determined using the Bradford method. […] The cleavage reaction was conducted at 37 °C for 4 h. The cleaved products of these substrates were detected using a monoclonal antibody (1:1000 dilution, CW0299, CWBio) against the C-terminal Myc tag. Aβ40 production was detected using the AlphaLISA assay (PerkinElmer) as described. The IC50 values and the inhibition curves were calculated using Prism 8.0. Statistical analysis of Aβ40 was performed using Prism 8 (GraphPad Software, San Diego, CA, USA). IC50 were determined by a four-parameter logistic regression. The statistical details can be found in Figs. 1, 4 and legends. Data are expressed as mean ± SD.
# [3] = PS2 PI 287 288 TL, MRK-560 2 nM, replicates
# [4] = PS2 PI 287 288 TL, MRK-560 40 nM, replicates
# [5] = PS2 PI 287 288 TL, MRK-560 200 nM, replicates
# [6] = PS2 PI 287 288 TL, MRK-560 1 μM, replicates
# [7] = PS2 PI 287 288 TL, MRK-560 10 μM, replicates
# [8] = PS2 PI 287 288 TL, MRK-560 20 μM, replicates
smiles,measurement,setting,value
"O=S(=O)(NC1CCC(c2cc(F)ccc2F)(S(=O)(=O)c2ccc(Cl)cc2)CC1)C(F)(F)F (stereo not drawn) [MRK-560, N-[cis-4-[(4-chlorophenyl)sulfonyl]-4-(2,5-difluorophenyl)cyclohexyl]-1,1,1-trifluoromethanesulfonamide]",Generation of AICD,PS1 variant T281P,still detected
same,Generation of AICD,PS1 TL281-282PI,could not be completely inhibited
same,Generation of AICD,PS2(PI287-288TL),completely inhibited
same,Generation of AICD,PS1 variant L282I,still detected
same,sensitivity of AICD production to MRK-560,PS2 variants,increased sensitivity
same,higher suppression of the PS1-complex over PS2,PS1-complex over PS2,37 folds
same,Generation of AICD,WT PS1-complex,completely inhibited
same,Generation of AICD,WT PS2-complex,can still be detected; also recorded: could not be completely inhibited
same,Aβ production in the brain,[1],reduced
same,Notch-related side effect,Notch,does not induce Notch-related side effect
same,remaining activity at 0.002 µM,"[2]; PS2 PI 287 288 TL, MRK-560 2 nM, mean of 3 replicates, read-out: Normalized production (control=1), Mean",88.4%
same,remaining activity at 0.002 µM,"[2]; PS2 PI 287 288 TL, MRK-560 2 nM, replicates, read-out: Normalized production (control=1)",89.8%
same,remaining activity at 0.04 µM,"[2]; PS2 PI 287 288 TL, MRK-560 40 nM, mean of 3 replicates, read-out: Normalized production (control=1), Mean",38.7%
same,remaining activity at 0.04 µM,"[2]; PS2 PI 287 288 TL, MRK-560 40 nM, replicates, read-out: Normalized production (control=1)",36.2%
same,remaining activity at 0.2 µM,"[2]; PS2 PI 287 288 TL, MRK-560 200 nM, mean of 3 replicates, read-out: Normalized production (control=1), Mean",6.34%
same,remaining activity at 0.2 µM,"[2]; PS2 PI 287 288 TL, MRK-560 200 nM, replicates, read-out: Normalized production (control=1)",6.66%
same,remaining activity at 1 µM,"[2]; PS2 PI 287 288 TL, MRK-560 1 μM, mean of 3 replicates, read-out: Normalized production (control=1), Mean",1.64%
same,remaining activity at 1 µM,"[2]; PS2 PI 287 288 TL, MRK-560 1 μM, replicates, read-out: Normalized production (control=1)",1.65%
same,remaining activity at 10 µM,"[2]; PS2 PI 287 288 TL, MRK-560 10 μM, mean of 3 replicates, read-out: Normalized production (control=1), Mean",0.86%
same,remaining activity at 10 µM,"[2]; PS2 PI 287 288 TL, MRK-560 10 μM, replicates, read-out: Normalized production (control=1)",0.88%
same,remaining activity at 20 µM,"[2]; PS2 PI 287 288 TL, MRK-560 20 μM, mean of 3 replicates, read-out: Normalized production (control=1), Mean",1.37%
same,remaining activity at 20 µM,"[2]; PS2 PI 287 288 TL, MRK-560 20 μM, replicates, read-out: Normalized production (control=1)",1.35%
same,Caculated Aβ40 production,[2]; [3],622.5323 and 598.5358 and 618.8332
same,raw data from α-Lisa reading,[2]; [3],89195 and 86274 and 88747
same,Caculated Aβ40 production,[2]; [4],251.4190 and 280.0544 and 273.5511
same,raw data from α-Lisa reading,[2]; [4],39722 and 43895 and 42953
same,Caculated Aβ40 production,[2]; [5],46.1689 and 42.1835 and 43.6058
same,raw data from α-Lisa reading,[2]; [5],7779 and 7121 and 7356
same,Caculated Aβ40 production,[2]; [6],11.4428 and 11.3299 and 11.2705
same,Normalized production (control=1),[2]; [6],0.0163
same,raw data from α-Lisa reading,[2]; [6],1994 and 1975 and 1965
same,Caculated Aβ40 production,[2]; [7],6.1091 and 5.7952 and 6.0025
same,raw data from α-Lisa reading,[2]; [7],1095 and 1042 and 1077
same,Caculated Aβ40 production,[2]; [8],9.3406 and 8.5277 and 10.7299
same,raw data from α-Lisa reading,[2]; [8],1640 and 1503 and 1874
same,IC50,"[2]; PS2 PI287-288TL, mean ± SD",0.025 ± 0.004 µM
